Values quoted from earlier work as cited in US20220347150A1, “TASIMELTEON USE IN TREATING SLEEP ABERRATIONS” (Vanda Pharmaceuticals Inc., priority 2019, published 2022).

Key:
[1] = preclinical models of acute phase-shifting and chronic re-entrainment
[2] = subjects with a 5-hour advance in sleep-wake cycle; treatment relative to placebo; reported in US 20090105333A1 (WO2007/137244)

## CCC(=O)NC[C@@H]1C[C@H]1c1cccc2c1CCO2 [tasimelteon, Tasimelteon]
[1]
  chronobiotic activity: potent chronobiotic activity
[2]
  shifting dim light melatonin onset: positive outcomes
  sleep efficacy: positive outcomes
